This is an account of results in ChEMBL document CHEMBL5523676, “Design, synthesis, and anti-cancer evaluation of C-14 arylcarbamate derivatives of andrographolide” (Bioorg Med Chem, 2024).

The IC50 is the concentration that inhibits the measured activity by half.

Series [1] deals with PANC-1. Kind of series: Inhibition of p53 R273H protein level in human PANC-1 cells at 15 uM measured after 24 hrs by Western blot analysis. The series is classed as functional, cell-based. (In western blotting, separated proteins are transferred to a membrane and probed.)
Series [2] relates to PANC-1. Kind of series: Antiproliferative activity against human PANC-1 cells assessed as inhibition of cell growth measured after 48 hrs by MTT assay. The series is classed as functional, cell-based. Particulars: PANC-1, 48 h.
Series [3] has as its system MIA PaCa-2. In words: Antiproliferative activity against human MIA PaCa-2 cells assessed as inhibition of cell growth measured after 48 hrs by MTT assay. The series is classed as functional, cell-based. To be noted: MIA PaCa-2, 48 h. For orientation: Tetrazolium assays rely on reduction of a dye to a coloured formazan, in cell work by metabolically active cells.
The test system of series [4] is MIA PaCa-2. Kind of series: Inhibition of p53 […] mutant protein level in human MIA PaCa-2 cells at 20 uM measured after 24 hrs by Western blot analysis. It is filed as functional, cell-based.
Series [5] has as its system PANC-1. Kind of series: Inhibition of p53 R273H mutant protein level in human PANC-1 cells at 10 uM measured after 24 hrs by Western blot analysis. The series is classed as functional, cell-based.
Series [6] relates to MIA PaCa-2. In words: Antiproliferative activity against human MIA PaCa-2 cells assessed as suppression of cell growth at 30 uM measured after 48 hrs by MTT assay. It is filed as functional, cell-based.
In series [7] the test system is PANC-1. In words: Antiproliferative activity against human PANC-1 cells assessed as inhibition of cell growth at upto 20 uM measured after 12 hrs by MTT assay. The series is classed as functional, cell-based.
The subject of series [8] is PANC-1. Kind of series: Inhibition of colony formation in human PANC-1 cells assessed as decrease in colony numbers measured after 24 hrs by crystal violet staining based analysis. The series is classed as functional, cell-based. To be noted: dose 1-30 µM.
The test system of series [9] is PANC-1. In words: Inhibition of cell migration in human PANC-1 cells at 10 uM incubated for 12 hrs by crystal violet staining based microscopic analysis. It is filed as functional.
Series [10] can be described thus: Antiproliferative activity against human IMR-90 cells assessed as inhibition of cell growth measured after 48 hrs by MTT assay. It is filed as toxicity, cell-based.
Series [11] has as its system MIA PaCa-2. In words: Inhibition of colony formation in human MIA PaCa-2 cells at 1 to 30 uM measured after 24 hrs by crystal violet staining based analysis. It is filed as functional, cell-based. To be noted: dose 1-30 µM.
The nature of series [12]: Antiproliferative activity against human HPDE cells assessed as inhibition of cell growth measured after 48 hrs by MTT assay. It is filed as toxicity, cell-based.
In series [13] the test system is MIA PaCa-2. In words: Inhibition of cell migration in human MIA PaCa-2 cells at 10 uM incubated for 24 hrs by crystal violet staining based microscopic analysis. It is filed as functional.
Series [14] in a line: Antiproliferative activity against human HEK293 cells assessed as inhibition of cell growth measured after 48 hrs by MTT assay. It is filed as toxicity, cell-based.

The source made the active and inactive calls. The rule behind the calls is not given here.

For `C=C1CC[C@@H]2[C@]3(C)COC(C)(C)O[C@@H]3CC[C@@]2(C)[C@@H]1C/C=C1/C(=O)OC[C@H]1OC(=O)Nc1cc(F)ccc1F`, in the series with PANC-1 [1], the inhibition entry was “Active”. Also, the IC50 in the series with PANC-1 [2] was 15.1 µM; in the series with MIA PaCa-2 [3], over 30 µM.
For the compound `C=C1CC[C@@H]2[C@]3(C)COC(C)(C)O[C@@H]3CC[C@@]2(C)[C@@H]1C/C=C1/C(=O)OC[C@H]1OC(=O)Nc1ccc([N+](=O)[O-])cc1`, the IC50 in the series on PANC-1 [2] amounted to 13.6 µM.
For the compound `C=C1CC[C@@H]2[C@]3(C)COC(C)(C)O[C@@H]3CC[C@@]2(C)[C@@H]1C/C=C1/C(=O)OC[C@H]1OC(=O)Nc1cccc(C#N)c1`, in the series with PANC-1 [1], the inhibition result was “Active”. Further, the IC50 with PANC-1 [2] came out at 15.2 µM.
Take `C=C1CC[C@@H]2[C@]3(C)COC(C)(C)O[C@@H]3CC[C@@]2(C)[C@@H]1C/C=C1/C(=O)OC[C@H]1OC(=O)Nc1cccc(OC)c1`: the 50% inhibitory concentration (IC50) in the series on PANC-1 [2] was 10.8 µM.
In the case of `C=C1CC[C@@H]2[C@]3(C)COC(C)(C)O[C@@H]3CC[C@@]2(C)[C@@H]1C/C=C1/C(=O)OC[C@H]1OC(=O)Nc1cccc(C(C)=O)c1`, the inhibition entry with MIA PaCa-2 [4] and in the series with PANC-1 [5] was “Active” throughout. Besides, the values for the IC50 in the series with PANC-1 [2] and in the series with MIA PaCa-2 [3] were 10.9 µM and over 30 µM, respectively.
Regarding `C=C1CC[C@@H]2[C@]3(C)COC(C)(C)O[C@@H]3CC[C@@]2(C)[C@@H]1C/C=C1/C(=O)OC[C@H]1OC(=O)Nc1cccc(C(F)(F)F)c1`, the IC50 in the series with PANC-1 [2] was over 30 µM.
Turning to `C=C1CC[C@@H]2[C@]3(C)COC(C)(C)O[C@@H]3CC[C@@]2(C)[C@@H]1C/C=C1/C(=O)OC[C@H]1OC(=O)Nc1ccc(NC(C)=O)cc1`, in the series with PANC-1 [2], the 50% inhibitory concentration (IC50) was over 30 µM.
For the compound `C=C1CC[C@@H]2[C@](C)(CO)[C@H](O)CC[C@@]2(C)[C@@H]1C/C=C1/C(=O)OC[C@H]1O` [ANDROGRAPHOLIDE], the outcome with MIA PaCa-2 [6] was Active. Further, the outcome in the series with PANC-1 [7] was inactive. The IC50 turned out to be 20.4 µM in the series on PANC-1 [2] and 21.1 µM with MIA PaCa-2 [3]. Further, the inhibition result in the series on PANC-1 [8] is “Dose-Dependent Effect”. The inhibition result in the series on PANC-1 [9] was “Active”.
For `C=C1CC[C@@H]2[C@]3(C)COC(C)(C)O[C@@H]3CC[C@@]2(C)[C@@H]1C/C=C1/C(=O)OC[C@H]1OC(=O)Nc1cc(C)cc(C)c1`, the IC50 in the series on PANC-1 [2] is over 30 µM.
In the case of `C=C1CC[C@@H]2[C@]3(C)COC(C)(C)O[C@@H]3CC[C@@]2(C)[C@@H]1C/C=C1/C(=O)OC[C@H]1OC(=O)Nc1ccc(Br)cc1`, the IC50 is 10.2 µM in the series with PANC-1 [2] and over 30 µM in the series with MIA PaCa-2 [3].
For `C=C1CC[C@@H]2[C@]3(C)COC(C)(C)O[C@@H]3CC[C@@]2(C)[C@@H]1C/C=C1/C(=O)OC[C@H]1OC(=O)Nc1ccc(Cl)cc1`, the IC50 in the series on PANC-1 [2] turned out to be 29.1 µM.
As to `C=C1CC[C@@H]2[C@]3(C)COC(C)(C)O[C@@H]3CC[C@@]2(C)[C@@H]1C/C=C1/C(=O)OC[C@H]1OC(=O)Nc1ccc(F)cc1F`, in the series with MIA PaCa-2 [6], the outcome was Active. Further, in the series with PANC-1 [2], the IC50 is over 30 µM.
On to `C=C1CC[C@@H]2[C@]3(C)COC(C)(C)O[C@@H]3CC[C@@]2(C)[C@@H]1C/C=C1/C(=O)OC[C@H]1OC(=O)Nc1cccc(Br)c1`, for which, in the series on PANC-1 [2], the IC50 was 16 µM.
For `C=C1CC[C@@H]2[C@]3(C)COC(C)(C)O[C@@H]3CC[C@@]2(C)[C@@H]1C/C=C1/C(=O)OC[C@H]1OC(=O)Nc1ccccc1`, the outcome in the series with MIA PaCa-2 [6] was Active. The outcome with PANC-1 [7] was inactive. Moreover, the inhibition result in the series on MIA PaCa-2 [4], in the series with MIA PaCa-2 [11], with MIA PaCa-2 [13], in the series with PANC-1 [9] and in the series on PANC-1 [5] was “Active” throughout. Besides, the IC50 amounted to 9.56 µM in the series on PANC-1 [2] and 25.7 µM in the series on MIA PaCa-2 [3]. Further, the IC50 at 48 h in [10], in series [12] and in [14] was over 30 µM each time. In addition, the inhibition result with PANC-1 [8] was “Dose-Dependent Effect”.
